Measurements: PMC11342128, “Gold(I) and gold(III) carbene complexes from the marine betaine norzooanemonin: inhibition of thioredoxin reductase, antiproliferative and antimicrobial activity” (RSC Medicinal Chemistry, 2024)
Several values for one entry are separate records, joined by “and”; a condition that tells them apart may be missing. Equal entries are not always repeated. Where two headings read alike, the source gives them in different places.

What was measured:
[1] = test system: MDA-MB-231 breast cancer cells; design: method as in PMID 38205632; conditions: read-out: Antiproliferative activity IC50, MDA-MB-231; cited from earlier work
[2] = test system: Acinetobacter baumannii DSM30007; test: Antibacterial activity (MIC, curve fitting); assay type: cell-based; conditions: for MIC, A.b.: Table 2, Acinetobacter baumannii DSM30007, 18 h, 37 °C; for MIC, A. baumannii: Table S12, ± standard error of the mean
Method: (§1) The antibacterial activity of all gold complexes was assessed against six pathogenic bacterial strains, including two Gram-positive species, i.e. Enterococcus faecium and methicillin-resistant Staphylococcus aureus (MRSA), and four Gram-negative species, i.e. Acinetobacter baumannii, Escherichia coli, Klebsiella pneumoniae, and Pseudomonas aeruginosa. Minimum inhibitory concentrations (MICs) were determined using a curve-fitting technique.
(§2) S2.1. Antibacterial Studies
(§3) Bacterial cultures were prepared by overnight aerobic incubation at 37 °C. Gram-negative strains were cultivated in Müller Hinton broth supplemented with 1% glucose at pH 7.2, while Gram-positive strains were grown in Trypticase soy yeast extract medium (TSY) with a composition of 30 g/l trypticase soy broth, 3 g/l yeast extract, and pH 7.2. The cultures were adjusted to an OD600 of 0.001, resulting in a final starting OD600 of 0.0005 for the subsequent tests. For testing, 25 μL of the prepared culture was combined with 25 μL of serially diluted test compounds in 384 well plates, following established protocols for different strains. Screening was performed at compound concentrations of 0.5, 5, and 50 µM, and for selected compounds, growth inhibition curves were recorded using DMSO stock solutions […]
(§4) Positive control compounds, namely linezolid (for MRSA strains), ciprofloxacin (for E. faecium and E. coli), and amikacin (for P. aeruginosa), were included. The maximum DMSO concentration in the assay […]
(§5) After an 18-hour incubation at 37 °C under moist conditions, the optical density at 600 nm was measured using a Fusion Universal Microplate Analyser (Perkin–Elmer, Waltham, USA). The minimum inhibitory concentration (MIC) values, representing the […]
(§6) fitting with Sigma Plot. The bacterial strains used included Gram-negative strains: Escherichia coli (DSM 1116), A. baumannii (DSM30007), K. pneumoniae (DSM111678), and Pseudomonas aeruginosa PA7 (DSM 24068); and Gram-positive strains: E. faecium (DSM20477) and Staphylococcus aureus MRSA

[3] = test system: Pseudomonas aeruginosa DSM 24068; test: Antibacterial activity (MIC, curve fitting); assay type: cell-based; conditions: for MIC, P.a.: Table 2, Pseudomonas aeruginosa DSM 24068, 18 h, 37 °C; for MIC, P. aeruginosa: Table S12, ± standard error of the mean
Method: as §1, §2, §3, §4, §5, §6

[4] = test system: Enterococcus faecium DSM20477; test: Antibacterial activity (MIC, curve fitting); assay type: cell-based; conditions: for MIC, E.f.: Table 2, Enterococcus faecium DSM20477, 18 h, 37 °C; for MIC, E. faecium: Table S12, ± standard error of the mean
Method: as §1, §2, §3, §4, §5, §6

[5] = test system: Escherichia coli DSM 1116; test: Antibacterial activity (MIC, curve fitting); assay type: cell-based; conditions: for MIC, E.c.: Table 2, Escherichia coli DSM 1116, 18 h, 37 °C; for MIC, E. coli: Table S12, ± standard error of the mean
Method: as §1, §2, §3, §4, §5, §6

[6] = test system: Klebsiella pneumoniae DSM111678; test: Antibacterial activity (MIC, curve fitting); assay type: cell-based; conditions: for MIC, K.p.: Table 2, Klebsiella pneumoniae DSM111678, 18 h, 37 °C; for MIC, K. pneumoniae: Table S12, ± standard error of the mean
Method: as §1, §2, §3, §4, §5, §6

[7] = test system: methicillin-resistant Staphylococcus aureus DSM 11822; test: Antibacterial activity (MIC, curve fitting); assay type: cell-based
Method: as §1, §2, §3, §4, §5, §6

TrxR from E. coli [8] = target: T1, TrxR from E. coli (Escherichia coli, UniProt P0A9P4); conditions: read-out: Inhibition of bacterial TrxR, IC50; isolated E. coli TrxR; investigated in previous report; cited from earlier work
TrxR from E. coli [9] = target: T1, TrxR from E. coli; test: Inhibition of isolated bacterial TrxR, DTNB-based assay; assay type: biochemical; design: purchased Sigma-Aldrich; conditions: for TrxR activity, % of control: compounds at 0.5 µM, n = 2, Table S13
Method: The inhibition of isolated TrxR from E. coli was determined for the selected monocarbene gold(I/III) complexes 2a–c and 4b–c using a DTNB-based assay (Table 3). […] The inhibition of bacterial TrxR for compound 2a was investigated in our previous report (Table 3).
S2.3. Inhibition of bacterial TrxR from E. coli
The TrxR (E. coli) inhibition assay was performed according to previously published procedures.[8] The assay is partly based on the procedure developed by Lu et al[9] and makes use of the reduction of DTNB (5,5′-dithiobis-(2-nitrobenzoic acid)). Solutions of E. coli TrxR (10.1 U/mL) and E. coli thioredoxin (Trx) (312 μg/mL) (both purchased from Sigma-Aldrich) were prepared in distilled water. Stock solutions of the test compounds (2 mM) were prepared in DMSO and serially diluted with TE buffer (Tris-HCl 50 mM, EDTA 1 mM, pH 7.5). 20 μL of these solutions or TE buffer without the test compounds (positive control) were mixed with the TrxR solution (10 μL), the Trx solution (10 μL) and 100 µl of NADPH (200 μM) in TE buffer in a well on a 96-well plate. As a blank control, 200 μM NADPH in TE buffer (100 μL) mixed with a DMSO / buffer mixture (40 μL) was used (final concentrations of DMSO: 0.5% v/v). The plate was incubated for 75 min at 25°C with moderate shaking. After incubation, 100 μL of a reaction mixture (TE buffer containing 200 μM NADPH and 5 mM DTNB) was added to each well to initiate the reaction. After thorough mixing, the formation of 5-TNB was monitored by a microplate reader at 405 nm in 35 s intervals (10 measurements). The values were corrected by subtraction of the blank solution absorption values. The increase in concentration of 5-TNB followed a linear trend (r2≥ 0.990) and the enzymatic activities were calculated as the gradients (increase in absorbance per second) thereof. […]
for each test compound, where the highest test compound concentration was used and the enzyme solution was replaced by TE buffer. The inhibition is presented as the mean IC50 values and standard deviations obtained in three independent experiments.
Table S13. Activity of TrxR from E. coli in presence of compounds at 0.5 µM (n = 2, n.d.= not

[10] = test system: A549 lung carcinoma cells; design: method as in PMID 38205632; conditions: read-out: Antiproliferative activity IC50, A549; cited from earlier work
[11] = test system: MCF-7 breast adenocarcinoma cells; design: method as in PMID 38205632; conditions: read-out: Antiproliferative activity IC50, MCF-7; cited from earlier work
[12] = test system: HT-29 colon carcinoma cells; design: method as in PMID 38205632; conditions: read-out: Antiproliferative activity IC50, HT-29; cited from earlier work
[13] = test system: Vero E6 African green monkey kidney cells; test: Antiproliferative activity in non-tumour reference cell line; assay type: cell-based; conditions: Vero E6 non-tumour reference cell line; SD in parentheses, n = 3
Method: (§7) The antiproliferative potential of the gold–NHC complexes was determined in A549 lung carcinoma cells, MDA-MB-231 breast cancer cells, MCF-7 breast adenocarcinoma cells, and HT-29 colon carcinoma cells (Table 1). Vero E6 African green monkey kidney cells served as a reference cell line to check for possible tumour selectivity. Auranofin (AF) was used as an established reference drug.[15,17] […]
(§8) S2.2. Cytotoxicity and Anticancer Studies
(§9) Cell culture and cytotoxicity
(§10) Cell lines were sourced from DSMZ (German Collection of Microorganisms and Cell Cultures GmbH) and maintained through standard procedures in Dulbecco's Modified Eagle Medium (DMEM) supplemented with 10% fetal calf serum and 50 mg/L gentamycin. Antiproliferative effects were assessed using a well-established assay protocol. In brief, 100 μL volumes of A549 cells (13,243 cells per mL), HT-29 cells (14,657 cells per mL), MDA-MB-231 cells (6,613 cells per mL), or MCF-7 cells (6,917 cells per mL) were transferred into the wells of 96-well plates and incubated at 37°C/5% CO2 for 72 […]
(§11) Freshly prepared stock solutions of the compounds in DMSO were diluted with the respective cell culture medium to achieve graded concentrations (final concentration of DMSO: 0.1% v/v). After 72 hours (A549, HT-29) or 96 hours (MCF-7, MDA-MB-231) of exposure, the cell biomass was assessed through crystal violet staining, and the IC50 value was determined as the concentration causing 50% inhibition of cell proliferation compared to an untreated control. Results were calculated as the mean values of three independent experiments.

[14] = test system: MCF-7 breast adenocarcinoma cells; test: Antiproliferative activity, crystal violet assay; assay type: cell-based; conditions: 96 h exposure, SD in parentheses, n = 3
Method: as §7, §8, §9, §10, §11

[15] = test system: HT-29 colon carcinoma cells; test: Antiproliferative activity, crystal violet assay; assay type: cell-based; conditions: 72 h exposure, SD in parentheses, n = 3
Method: as §7, §8, §9, §10, §11

[16] = test system: A549 lung carcinoma cells; test: Antiproliferative activity, crystal violet assay; assay type: cell-based; conditions: 72 h exposure, SD in parentheses, n = 3
Method: as §7, §8, §9, §10, §11

[17] = test system: MDA-MB-231 breast cancer cells; test: Antiproliferative activity, crystal violet assay; assay type: cell-based; conditions: 96 h exposure, SD in parentheses, n = 3
Method: as §7, §8, §9, §10, §11

[18] = Table 2, MRSA DSM 11822, 18 h, 37 °C
[19] = Table S12, ± standard error of the mean

T1 sequence (P0A9P4 2-321): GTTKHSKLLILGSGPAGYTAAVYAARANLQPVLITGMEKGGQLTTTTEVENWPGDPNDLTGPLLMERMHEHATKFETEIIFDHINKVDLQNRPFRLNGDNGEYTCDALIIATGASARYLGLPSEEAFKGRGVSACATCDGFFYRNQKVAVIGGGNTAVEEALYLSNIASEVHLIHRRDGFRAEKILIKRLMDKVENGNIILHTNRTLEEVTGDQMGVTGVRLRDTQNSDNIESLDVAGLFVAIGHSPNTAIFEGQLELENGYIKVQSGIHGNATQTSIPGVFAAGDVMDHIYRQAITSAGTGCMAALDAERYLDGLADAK

SMILES	MIC, A.b. [2]	MIC, A. baumannii [2] [µM]	MIC, P.a. [3] [µM]	MIC, P. aeruginosa [3] [µM]	MIC, E.f. [4]	MIC, E. faecium [4] [µM]	MIC, E.c. [5]	MIC, E. coli [5] [µM]	MIC, K.p. [6]	MIC, K. pneumoniae [6] [µM]	MIC, MRSA [7, 18]	MIC, MRSA [7, 19] [µM]	TrxR activity, % of control (TrxR from E. coli [9])	also measured
Cn1cc(C(=O)O)[n+](C)[c]1[Au-][Cl] [2a]	43 ± 0 µM	42.95 ± 0	>100	> 100	>100 µM	> 100	86 ± 0 µM	85.89 ± 0	43 ± 7 µM	42.95 ± 6.75	>100 µM	> 100	94.6 % of control	IC50 [1]: 76.1 µM; IC50 (TrxR from E. coli [8]): 0.786 ± 0.118 µM; IC50 [10]: 60 µM; IC50 [11]: 53.4 µM; IC50 [12]: 63.9 µM
CCOC(=O)c1cn(C)[c]([Au-][Cl])[n+]1C [2c]	10 µM and 10 ± 2 µM	9.98 ± 2.07	>100	> 100	10 µM and 10 ± 0 µM	9.98 ± 0	40 µM and 40 ± 0 µM	39.94 ± 0	40 µM and 40 ± 0 µM	39.94 ± 0	10 µM and 10 ± 0 µM	9.98 ± 0	13.8 % of control	IC50 (TrxR from E. coli [9]; isolated E. coli TrxR, DTNB assay, ± standard deviation, n = 3): 0.133 ± 0.044 µM; IC50 [13]: 13.1 µM; IC50 [14]: 9.93 µM; IC50 [15]: 22.1 µM; IC50 [16]: 10.4 µM; IC50 [17]: 8.9 µM
